# Tested on: H37Rv::F420-mutants, F420 deficient (FbiC mutant)
# Type: cell-based, M. tuberculosis
row,Structure (SMILES),H37Rv::F420-mutants MIC99
1,"O=[N+]([O-])c1cn2c(n1)OC[C@@H](NCc1ccc(OC(F)(F)F)cc1)C2 [Amino-824, ((s)-2-nitro-6,7-dihydro-5H-imidazo[2,1-b][1,3]oxazin-6-yl)-(4-trifluoromethoxybenzyl)amine]",>10 mg/L
2,O=C(CO[C@@H]1COc2nc([N+](=O)[O-])cn2C1)N1CCN(c2ccc(OC(F)(F)F)cc2)CC1 [NI-622],>10 mg/L
3,CC[C@H]1Oc2nc([N+](=O)[O-])cn2C[C@@H]1NCc1ccc(-c2ccc(OC(F)(F)F)cc2)cc1 [NI-297],>10 mg/L
4,CC[C@@H]1Oc2nc([N+](=O)[O-])cn2C[C@@H]1NCc1ccc(OC(F)(F)F)c(F)c1 [NI-176],>10 mg/L
5,O=[N+]([O-])c1cn2c(n1)OC[C@@H](NCc1ccc(OC(F)(F)F)c(Cl)c1)C2 [NI-135],>10 mg/L
6,CC[C@@H]1Oc2nc([N+](=O)[O-])cn2C[C@@H]1NCc1ccc(OC(F)(F)F)cc1 [NI-269],>10 mg/L
7,CC[C@H]1Oc2nc([N+](=O)[O-])cn2C[C@@H]1NCc1ccc(OC(F)(F)F)cc1 [NI-182],>10 mg/L
8,CC[C@@H]1Oc2nc([N+](=O)[O-])cn2C[C@@H]1OCc1ccc(OC(F)(F)F)cc1 [NI-145],>10 mg/L
9,O=C(CO[C@@H]1COc2nc([N+](=O)[O-])cn2C1)N1CCN(c2ccc(C(F)(F)F)cn2)CC1 [NI-644],>10 mg/L
10,O=[N+]([O-])c1cn2c(n1)OC[C@@H](NCc1ccc(OC(F)(F)F)c(O)c1)C2 [NI-147],>10 mg/L
11,O=[N+]([O-])c1cn2c(n1)OC[C@@H](NCCc1ccc(OC(F)(F)F)cc1)C2 [AminoEthyl-824],>10 mg/L
12,O=[N+]([O-])c1cn2c(n1)OC1(CC1)C(OCc1ccc(OC(F)(F)F)cc1)C2 (centres unmarked) [NI-302],>10 mg/L
13,"O=[N+]([O-])c1cn2c(n1)OC[C@@H](OCc1ccc(OC(F)(F)F)cc1)C2 [PA-824, (6S)-2-nitro-6-{[4-(trifluoromethoxy)benzyl]oxy}-6,7-dihydro-5H-imidazo[2,1-b][1, 3]oxazine, reference compound]",>10 mg/L
14,O=[N+]([O-])c1cn2c(n1)OC[C@@H](NCc1ccc(OC(F)(F)F)c(F)c1)C2 [NI-136],>10 mg/L
